The conditions of data set [1]: 298.15 K, 101.33 kPa, Liquid.
Data set [2] can be described thus: refractive index (Na D-line) (dimensionless). Particulars: 298.15 K; 101.33 kPa; Liquid; Standard Abbe refractometry.

We go through five molecules from the NIST ThermoML archive (doi:10.1016/j.jct.2008.01.025).

± gives the expanded uncertainty stated by the source.

As to `CCCCCCCCCCCCCCCC` [hexadecane], the mass density in data set [1] is listed as 771.15 ± 0.85 kg/m3. The refractive index in data set [2] is reported as 1.43232 ± 0.0004.
Regarding `CCCCCCCC[n+]1ccn(C)c1.F[B-](F)(F)F` [1-methyl-3-octylimidazolium tetrafluoroborate], the mass density in data set [1] (Vibrating tube method) amounted to 1104.42 ± 2.3 kg/m3. The refractive index in data set [2] is 1.43329 ± 0.00069.
Take `CCCCCCCCCCCC` [dodecane]: the mass density in data set [1] turned out to be 745.32 ± 0.91 kg/m3. In data set [2], the refractive index came to 1.42011 ± 0.0004.
As for `c1ccsc1` [thiophene], the mass density in data set [1] is listed as 1058.5 ± 0.28 kg/m3. Also, the refractive index in data set [2] was 1.52581 ± 0.00036.
Taken in the same sequence, the figures for `CCCCCCC` [heptane] were 679.466 ± 0.66 kg/m3 and 1.38517 ± 0.00036.

What is called mass density is the mass of a sample divided by its volume. Usually refractive index stands for a measure of how strongly the sample bends light.
